Publication doi:10.1101/2024.06.17.599194v1 (biorxiv, 2024)

Experiments:
[1] = target: T1, K. pneumoniae IspE (KpIspE) (Klebsiella pneumoniae, UniProt A6TAP2); assay: coupled spectrophotometric assay, dose-response; format: biochemical
T1 sequence (A6TAP2 1-283): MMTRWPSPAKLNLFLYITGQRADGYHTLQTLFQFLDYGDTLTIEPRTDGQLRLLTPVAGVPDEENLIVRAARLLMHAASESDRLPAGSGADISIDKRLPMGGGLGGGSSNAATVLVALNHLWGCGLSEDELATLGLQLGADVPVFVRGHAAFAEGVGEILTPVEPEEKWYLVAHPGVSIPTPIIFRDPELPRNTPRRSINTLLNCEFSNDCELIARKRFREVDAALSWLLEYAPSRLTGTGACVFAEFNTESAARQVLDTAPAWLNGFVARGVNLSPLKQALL

[2] = target: T2, A. baumannii IspE (AbIspE) (Acinetobacter baumannii, UniProt B2HUM5); assay: coupled spectrophotometric assay, dose-response; format: biochemical
T2 sequence (B2HUM5 1-277): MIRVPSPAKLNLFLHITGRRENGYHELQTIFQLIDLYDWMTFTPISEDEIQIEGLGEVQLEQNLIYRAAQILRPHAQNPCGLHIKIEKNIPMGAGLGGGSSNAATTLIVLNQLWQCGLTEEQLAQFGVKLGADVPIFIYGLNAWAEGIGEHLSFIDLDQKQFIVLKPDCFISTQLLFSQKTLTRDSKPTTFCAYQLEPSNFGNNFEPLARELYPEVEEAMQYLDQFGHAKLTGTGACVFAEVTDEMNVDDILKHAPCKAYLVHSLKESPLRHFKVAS

[3] = target: T3, E. coli IspE (EcIspE) (Escherichia coli, UniProt P62615); assay: coupled spectrophotometric assay, dose-response; format: biochemical
T3 sequence (P62615 1-283): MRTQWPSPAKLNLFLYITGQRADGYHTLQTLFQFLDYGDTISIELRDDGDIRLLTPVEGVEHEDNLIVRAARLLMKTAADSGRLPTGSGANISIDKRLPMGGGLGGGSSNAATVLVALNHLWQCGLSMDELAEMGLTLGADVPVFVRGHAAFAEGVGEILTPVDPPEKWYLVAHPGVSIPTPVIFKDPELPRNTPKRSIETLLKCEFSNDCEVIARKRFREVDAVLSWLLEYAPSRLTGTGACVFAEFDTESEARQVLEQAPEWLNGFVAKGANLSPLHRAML

[4] = substrate: C[C@](O)(CO)[C@H](O)COP(=O)(O)OP(=O)(O)OC[C@H]1O[C@@H](n2ccc(N)nc2=O)[C@H](O)[C@@H]1O; assay: purified protein; conditions: room temperature; ATP 1 mM
[5] = substrate: Nc1ncnc2c1ncn2[C@@H]1O[C@H](COP(=O)(O)OP(=O)(O)OP(=O)(O)O)[C@@H](O)[C@H]1O; assay: purified protein; conditions: room temperature; CDP-ME 2 mM

Molecule	IC50 [1]	IC50 [2]	IC50 [3]	Km [4]	Km [5]
Nc1nc(=O)n(C2CCCS2)cc1C#CCNS(=O)(=O)C1CC1 (racemic) [compound 1, (±)-1]	8 ± 1.5 µM	20 ± 3 µM	13 ± 2.9 µM	–	–
Nc1nc(=O)[nH]cc1C#CCNS(=O)(=O)C1CC1 [compound 2, 2]	44.3 ± 4.9 µM	–	36.5 ± 1.6 µM	–	–
Nc1nc(=O)[nH]cc1C#CCNS(=O)(=O)C1CCCC1 [compound 3, 3]	11.3 ± 0.6 µM	–	10.3 ± 0.7 µM	–	–
Nc1nc(=O)[nH]cc1C#CCNS(=O)(=O)C1CCCCC1 [compound 4, 4]	5.2 ± 1.3 µM	–	6.2 ± 3.19 µM	–	–
K. pneumoniae IspE (KpIspE) (Klebsiella pneumoniae subsp. pneumoniae MGH 78578) (protein) MMTRWPSPAKLNLFLYITGQRADGYHTLQTLFQFLDYGDTLTIEPRTDGQLRLLTPVAGVPDEENLIVRAARLLMHAASESDRLPAGSGADISIDKRLPMGGGLGGGSSNAATVLVALNHLWGCGLSEDELATLGLQLGADVPVFVRGHAAFAEGVGEILTPVEPEEKWYLVAHPGVSIPTPIIFRDPELPRNTPRRSINTLLNCEFSNDCELIARKRFREVDAALSWLLEYAPSRLTGTGACVFAEFNTESAARQVLDTAPAWLNGFVARGVNLSPLKQALL	–	–	–	170 µM	348 µM
E. coli IspE (EcIspE) (Escherichia coli K-12) (protein) MRTQWPSPAKLNLFLYITGQRADGYHTLQTLFQFLDYGDTISIELRDDGDIRLLTPVEGVEHEDNLIVRAARLLMKTAADSGRLPTGSGANISIDKRLPMGGGLGGGSSNAATVLVALNHLWQCGLSMDELAEMGLTLGADVPVFVRGHAAFAEGVGEILTPVDPPEKWYLVAHPGVSIPTPVIFKDPELPRNTPKRSIETLLKCEFSNDCEVIARKRFREVDAVLSWLLEYAPSRLTGTGACVFAEFDTESEARQVLEQAPEWLNGFVAKGANLSPLHRAML	–	–	–	200 µM	420 µM
A. baumannii IspE (AbIspE) (Acinetobacter baumannii ACICU) (protein) MIRVPSPAKLNLFLHITGRRENGYHELQTIFQLIDLYDWMTFTPISEDEIQIEGLGEVQLEQNLIYRAAQILRPHAQNPCGLHIKIEKNIPMGAGLGGGSSNAATTLIVLNQLWQCGLTEEQLAQFGVKLGADVPIFIYGLNAWAEGIGEHLSFIDLDQKQFIVLKPDCFISTQLLFSQKTLTRDSKPTTFCAYQLEPSNFGNNFEPLARELYPEVEEAMQYLDQFGHAKLTGTGACVFAEVTDEMNVDDILKHAPCKAYLVHSLKESPLRHFKVAS	–	–	–	358 µM	474 µM
